According to US20030236202A1, “Natural products and derivatives thereof for protection against neurodegenerative diseases” (priority 2002, published 2003):

Legend:
[1] = Total antioxidant capacity of cerebrospinal fluid after oral administration; assay type: in vivo; settings: rat, 100 mg oral, after 15 min
Experimental: Several rats were given 100 mg hydroxytyrosol by oral administration. After 15 min a small amount of cerebrospinal fluid was taken from the rat and analysed for the presence of hydroxytyrosol. Also the total antioxidant capacity in this fluid was measured and compared with a control. The detection of hydroxytyrosol was accomplished by gas chromatography and concentrations were determined by a standard curve. Hydroxytyrosol reached a concentration between 0.1 and 0.2 mM in cerebrospinal fluid after 15 minutes of oral administration. Moreover, the total antioxidant capacity of cerebrospinal fluid increased by 35% under these conditions as compared to a control.

[2] = system: primary hippocampal cultures from rat; experiment: Neuroprotection: rescue of neuronal cells from neurotoxin-induced apoptosis; assay type: cell-based; settings: 50 μM
Experimental: The capacity of two phenolic compounds to rescue neuronal cells from different kind of stressors was tested. To primary hippocampal cultures from rat, different neurotoxins (glutamate, hydrogen peroxide or beta-amyloid peptide) were added in such concentrations that in half of the cells apoptosis was induced. Then, together with the toxins, hydroxytyrosol or tyrosol were added in a final concentration of 50 μM, and the cells were incubated for 24 h. at 37° C. Subsequently, apoptosis was measured in the cell cultures and the number of cells that were protected by this treatment as compared to a control was calculated. […] Hydroxytyrosol protected around 60% of the cells against hydrogen peroxide, 35% against glutamate-induced neurotoxicity, and 45% against beta-amyloid induced apoptosis.

[3] = system: Beta-amyloid peptide (1-40); experiment: Prevention of metal-induced beta-amyloid precipitation (turbidometric assay); settings: 25 μM compound, 10 μM beta-amyloid (1-40)
Experimental: Therefore, an experiment was performed to study its capacity to solubilize beta-amyloid peptide from insoluble aggregates. Beta-amyloid peptide (1-40) was brought to 10 μM in 150 mM NaCl, 50 mM HEPES (pH 7.4), and mixed with 10 μM CuCl2 or 10 μM FeCl3. Precipitation of beta-amyloid peptide by copper and iron was measured by a turbidometric assay (Huang et al. J. Biol. Chem. 1997, 272(42), 26464-70). Copper- and iron-induced turbidity was almost completely abolished (>90%) by the presence of 25 μM hydroxytyrosol.

[4] = target: T1, monoamine oxidase B (MAO-B) (Rattus norvegicus, UniProt P19643); experiment: Monoamine oxidase inhibition, purified mitochondria from rat brain tissue; assay type: biochemical; settings: benzylamine (300 μM) as substrate
T1 construct: MAO-B enzyme activities were measured using purified mitochondria from rat brain tissue; from tissue; host or cells: purified mitochondria from rat brain tissue
T1 sequence (P19643 1-520): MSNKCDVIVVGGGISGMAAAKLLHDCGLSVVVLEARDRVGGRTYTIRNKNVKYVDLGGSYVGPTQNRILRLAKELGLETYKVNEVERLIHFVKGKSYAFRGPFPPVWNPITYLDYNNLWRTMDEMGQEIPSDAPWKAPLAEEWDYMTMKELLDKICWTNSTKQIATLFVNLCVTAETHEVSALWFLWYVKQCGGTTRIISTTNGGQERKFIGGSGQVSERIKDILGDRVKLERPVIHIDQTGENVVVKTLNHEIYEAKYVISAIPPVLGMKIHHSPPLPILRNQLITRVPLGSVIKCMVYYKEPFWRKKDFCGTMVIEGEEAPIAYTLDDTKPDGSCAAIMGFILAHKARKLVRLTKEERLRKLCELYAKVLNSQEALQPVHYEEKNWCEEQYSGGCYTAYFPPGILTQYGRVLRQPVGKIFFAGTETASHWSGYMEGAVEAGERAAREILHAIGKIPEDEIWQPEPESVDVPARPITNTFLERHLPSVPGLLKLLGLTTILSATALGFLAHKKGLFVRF
Experimental: We determined the IC50 of hydroxytyrosol for monoamine oxidase B (MAO-B). Therefore, MAO-B enzyme activities were measured using purified mitochondria from rat brain tissue as described previously (Holt et al. Anal. Biochem. 1997, 244, 384-392). Benzylamine (300 μM) was used as a substrate for MAO-B and the IC50 was calculated by adding different amounts of hydroxytyrosol to the enzyme assay.

[5] = Compound in cerebrospinal fluid of rats after oral administration (gas chromatography); assay type: in vivo, rat; settings: rats which had received tyrosol orally
[6] = 24 h at 37° C., toxin inducing apoptosis in half of the cells

Structure (SMILES)	Increase of total antioxidant capacity of cerebrospinal fluid as compared to a control [1] [%]	Cells protected against beta-amyloid induced apoptosis [2, 6] [%]	Cells protected against glutamate-induced neurotoxicity [2, 6] [%]	Cells protected against hydrogen peroxide [2, 6]	Copper-induced turbidity abolished ([3]; 10 μM CuCl2, pH 7.4) [%]	Iron-induced turbidity abolished ([3]; 10 μM FeCl3, pH 7.4) [%]	IC50 [4] [µM]	Binding of iron, zinc and copper ions (in words) (Binding of metal ions)	Tyrosol in cerebrospinal fluid (in words) [5]	Protection of cells from dying (in words) ([2]; 24 h, glutamate, hydrogen peroxide or beta-amyloid peptide)
OCCc1ccc(O)c(O)c1 [Hydroxytyrosol, 2-(3,4-dihydroxyphenyl) ethanol]	35	~45	~35	around 60%	> 90	> 90	16.3 ± 1.3	high affinity	–	–
OCCc1ccc(O)cc1 [Tyrosol, 2-(4-hydroxyphenyl) ethanol]	–	–	–	–	–	–	–	–	detected	protected part of the cells from dying
